Here are results for eleven molecules from patent US11427548B2 (Arvinas Operations, Inc., priority 2015, dated 2022).

Where two headings read alike, the source gives them in different places.

In general, DC50 refers to the midpoint of the concentration-degradation curve. In general, Dmax refers to the largest share of the target that was removed.

For the experiment, the target named is T1, Androgen Receptor (Homo sapiens, UniProt P10275).
T1 construct: endogenous in cells; host or cells: VCaP cells
T1 sequence (P10275 1-920): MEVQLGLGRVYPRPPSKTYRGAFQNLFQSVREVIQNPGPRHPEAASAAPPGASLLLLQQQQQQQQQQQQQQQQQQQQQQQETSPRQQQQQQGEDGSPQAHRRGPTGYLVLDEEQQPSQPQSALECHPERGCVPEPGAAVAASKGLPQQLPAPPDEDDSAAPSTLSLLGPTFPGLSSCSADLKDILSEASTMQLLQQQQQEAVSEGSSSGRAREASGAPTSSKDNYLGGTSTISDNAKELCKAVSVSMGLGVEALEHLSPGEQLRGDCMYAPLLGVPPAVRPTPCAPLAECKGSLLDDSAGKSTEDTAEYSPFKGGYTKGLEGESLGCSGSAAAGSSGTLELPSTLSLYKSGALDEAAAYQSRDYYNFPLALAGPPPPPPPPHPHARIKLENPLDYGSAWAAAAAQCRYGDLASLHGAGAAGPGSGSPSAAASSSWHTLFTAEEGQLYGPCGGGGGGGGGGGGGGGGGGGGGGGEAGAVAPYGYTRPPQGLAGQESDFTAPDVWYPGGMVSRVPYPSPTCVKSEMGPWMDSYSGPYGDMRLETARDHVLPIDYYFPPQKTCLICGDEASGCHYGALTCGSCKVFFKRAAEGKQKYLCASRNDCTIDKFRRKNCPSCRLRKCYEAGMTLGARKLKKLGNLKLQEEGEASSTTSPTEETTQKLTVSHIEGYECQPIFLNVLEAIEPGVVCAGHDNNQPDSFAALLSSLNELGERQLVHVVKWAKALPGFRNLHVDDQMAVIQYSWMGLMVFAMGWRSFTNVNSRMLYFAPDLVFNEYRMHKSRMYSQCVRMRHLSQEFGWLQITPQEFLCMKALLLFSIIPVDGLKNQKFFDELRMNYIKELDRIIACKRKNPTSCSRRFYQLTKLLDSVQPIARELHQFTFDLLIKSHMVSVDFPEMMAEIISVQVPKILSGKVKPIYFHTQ
As to the kind of experiment: Androgen Receptor ELISA assay (PathScan AR ELISA) in VCaP cells: AR degradation, Dmax and DC50. It counts as cell-based. In outline: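 After 24 h exposure of VCaP cells (charcoal-stripped serum, 0.1 nM R1881 agonist, 0.1% DMSO) to seven half-log compound concentrations, residual AR in lysates was measured by PathScan ELISA (TMB absorbance, 450 nm). Cells were plated at 30,000/well and grown at least 3 days beforehand.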
On the technique in general: An ELISA detects its analyte on a solid surface through an enzyme-linked reagent.

Setting [1] is: VCaP cells; Table 36; read-out: VCaP DC50.
[2] abbreviates: VCaP, VCaP cells; Table 36; read-out: VCaP Dmax (%).
Where [3] appears, read: VCaP, read-out: VCaP Dmax (%), VCaP cells; Table 36.

Take `Cc1ncsc1-c1ccc(C(CO)NC(=O)[C@@H]2C[C@@H](O)CN2C(=O)[C@@H](NC(=O)CCC(F)(F)CN2CCN(c3ccc(C(=O)N[C@H]4C(C)(C)[C@H](Oc5ccc(C#N)c(Cl)c5)C4(C)C)cn3)CC2)C(C)(C)C)cc1` (stereo partly drawn) [Example 800, N-((1r,3r)-3-(3-chloro-4-cyanophenoxy)-2,2,4,4-tetramethylcyclobutyl)-6-(4-(2,2-difluoro-5-(((S)-1-((2S,4R)-4-hydroxy-2-(((R)-2-hydroxy-1-(4-(4-methylthiazol-5-yl)phenyl)ethyl)carbamoyl)pyrrolidin-1-yl)-3,3-dimethyl-1-oxobutan-2-yl)amino)-5-oxopentyl)piperazin-1-yl)nicotinamide]: the DC50 under setting [1] is below 50 nM. Moreover, the Dmax under setting [2] is above 71%. In the same order, the values of `Cc1ncsc1-c1ccc([C@H](C)NC(=O)C2C[C@@H](O)CN2C(=O)[C@@H](NC(=O)CN2C[C@@H]3C[C@H]2CN3CCCc2ccc(C(=O)N[C@H]3C(C)(C)[C@H](Oc4ccc(C#N)c(Cl)c4)C3(C)C)cc2)C(C)(C)C)cc1` (stereo partly drawn) [Example 801, (2S,4R)-1-((S)-2-(2-((1S,4S)-5-(3-(4-(((1r,3S)-3-(3-chloro-4-cyanophenoxy)-2,2,4,4-tetramethylcyclobutyl)carbamoyl)phenyl)propyl)-2,5-diazabicyclo[2.2.1]heptan-2-yl)acetamido)-3,3-dimethylbutanoyl)-4-hydroxy-N-((S)-1-(4-(4-methylthiazol-5-yl)phenyl)ethyl)pyrrolidine-2-carboxamide] are below 50 nM and 51 to 70%. For the molecule `Cc1ncsc1-c1ccc([C@H](C)NC(=O)[C@@H]2C[C@@H](O)CN2C(=O)[C@@H](NC(=O)CN2C3CCC2CN(CCCc2ccc(C(=O)NC4C(C)(C)C(Oc5ccc(C#N)c(Cl)c5)C4(C)C)cc2)C3)C(C)(C)C)cc1` (stereo partly drawn) [Example 802, (2S,4R)-1-((2S)-2-(2-(3-(3-(4-(((1r,3r)-3-(3-chloro-4-cyanophenoxy)-2,2,4,4-tetramethylcyclobutyl)carbamoyl)phenyl)propyl)-3,8-diazabicyclo[3.2.1]octan-8-yl)acetamido)-3,3-dimethylbutanoyl)-4-hydroxy-N-((S)-1-(4-(4-methylthiazol-5-yl)phenyl)ethyl)pyrrolidine-2-carboxamide], under “VCaP cells; Table 36”, the “VCaP Dmax (%)” value is on record as “+++ (51% ≤ Dmax ≤ 70%)”. For the same molecule, the half-maximal degradation concentration (DC50) under setting [1] was below 50 nM. Consider `Cc1ncsc1-c1ccc([C@H](C)NC(=O)C2C[C@@H](O)CN2C(=O)[C@@H](NC(=O)CCCC2(N3CCN(c4ccc(C(=O)N[C@H]5C(C)(C)[C@H](Oc6ccc(C#N)c(Cl)c6)C5(C)C)cn4)CC3)COC2)C(C)(C)C)cc1` (stereo partly drawn) [Example 803, N-((1r,3r)-3-(3-chloro-4-cyanophenoxy)-2,2,4,4-tetramethylcyclobutyl)-6-(4-(3-(4-(((S)-1-((2S,4R)-4-hydroxy-2-(((S)-1-(4-(4-methylthiazol-5-yl)phenyl)ethyl)carbamoyl)pyrrolidin-1-yl)-3,3-dimethyl-1-oxobutan-2-yl)amino)-4-oxobutyl)oxetan-3-yl)piperazin-1-yl)nicotinamide], for which the half-maximal degradation concentration (DC50) under setting [1] was above 501 nM. The Dmax under setting [2] lay within 26 to 50%. `Cc1ncsc1-c1ccc([C@H](C)NC(=O)[C@@H]2C[C@@H](O)CN2C(=O)[C@@H](NC(=O)CN2CCN(CCCCN3CCN(c4ccc(C(=O)N[C@H]5C(C)(C)[C@H](Oc6ccc(C#N)c(Cl)c6)C5(C)C)cn4)CC3)CC2)C(C)(C)C)cc1` [Example 804, N-((1r,3r)-3-(3-chloro-4-cyanophenoxy)-2,2,4,4-tetramethylcyclobutyl)-6-(4-(4-(4-(2-(((S)-1-((2S,4R)-4-hydroxy-2-(((S)-1-(4-(4-methylthiazol-5-yl)phenyl)ethyl)carbamoyl)pyrrolidin-1-yl)-3,3-dimethyl-1-oxobutan-2-yl)amino)-2-oxoethyl)piperazin-1-yl)butyl)piperazin-1-yl)nicotinamide]: the 50% degradation concentration (DC50) under setting [1] is below 50 nM. The greatest degradation seen (Dmax) under setting [3] was 51 to 70%. In the same order, the values of `Cc1ncsc1-c1ccc([C@H](C)NC(=O)[C@@H]2C[C@@H](O)CN2C(=O)[C@@H](NC(=O)CN2CCN(CCOCCN3CCN(c4ccc(C(=O)N[C@H]5C(C)(C)[C@H](Oc6ccc(C#N)c(Cl)c6)C5(C)C)cn4)CC3)CC2)C(C)(C)C)cc1` [Example 805, N-((1r,3r)-3-(3-chloro-4-cyanophenoxy)-2,2,4,4-tetramethylcyclobutyl)-6-(4-(2-(2-(4-(2-(((S)-1-((2S,4R)-4-hydroxy-2-(((S)-1-(4-(4-methylthiazol-5-yl)phenyl)ethyl)carbamoyl)pyrrolidin-1-yl)-3,3-dimethyl-1-oxobutan-2-yl)amino)-2-oxoethyl)piperazin-1-yl)ethoxy)ethyl)piperazin-1-yl)nicotinamide] are above 501 nM and below 25%.

On to `Cc1ncsc1-c1ccc([C@H](C)NC(=O)C2C[C@@H](O)CN2C(=O)C(NC(=O)CN2CCN(CCCCc3ccc(C(=O)N[C@H]4C(C)(C)[C@H](Oc5ccc(C#N)c(Cl)c5)C4(C)C)cc3)CC2)C(C)(C)C)cc1` (stereo partly drawn) [Example 806, (2S,4R)-1-((S)-2-(2-(4-(4-(4-(((1r,3r)-3-(3-chloro-4-cyanophenoxy)-2,2,4,4-tetramethylcyclobutyl)carbamoyl)phenyl)butyl)piperazin-1-yl)acetamido)-3,3-dimethylbutanoyl)-4-hydroxy-N-((S)-1-(4-(4-methylthiazol-5-yl)phenyl)ethyl)pyrrolidine-2-carboxamide], for which, under setting [1], the half-maximal degradation concentration (DC50) is below 50 nM. Further, the Dmax under setting [2] is above 71%.

Take `Cc1ncsc1-c1ccc([C@H](C)NC(=O)C2C[C@@H](O)CN2C(=O)[C@@H](NC(=O)CN2C[C@@H]3C[C@H]2CN3CCCc2ccc(C(=O)N[C@H]3C(C)(C)[C@H](Oc4ccc(C#N)c(Cl)c4)C3(C)C)cc2)C(C)(C)C)cc1` (stereo partly drawn) [Example 807, (2S,4R)-1-((S)-2-(2-((1R,4R)-5-(3-(4-(((1r,3R)-3-(3-chloro-4-cyanophenoxy)-2,2,4,4-tetramethylcyclobutyl)carbamoyl)phenyl)propyl)-2,5-diazabicyclo[2.2.1]heptan-2-yl)acetamido)-3,3-dimethylbutanoyl)-4-hydroxy-N-((S)-1-(4-(4-methylthiazol-5-yl)phenyl)ethyl)pyrrolidine-2-carboxamide]: under setting [1], the DC50 is below 50 nM.

Consider `Cc1ncsc1-c1ccc([C@H](C)NC(=O)[C@@H]2C[C@@H](O)CN2C(=O)[C@@H](NC(=O)CN2CC3CCC(C2)N3CCCc2ccc(C(=O)NC3C(C)(C)C(Oc4ccc(C#N)c(Cl)c4)C3(C)C)cc2)C(C)(C)C)cc1` (stereo partly drawn) [Example 808, (2S,4R)-1-((2S)-2-(2-(8-(3-(4-(((1r,3r)-3-(3-chloro-4-cyanophenoxy)-2,2,4,4-tetramethylcyclobutyl)carbamoyl)phenyl)propyl)-3,8-diazabicyclo[3.2.1]octan-3-yl)acetamido)-3,3-dimethylbutanoyl)-4-hydroxy-N-((S)-1-(4-(4-methylthiazol-5-yl)phenyl)ethyl)pyrrolidine-2-carboxamide], for which, where the note is “VCaP, read-out: VCaP Dmax (%)”, the greatest degradation seen (Dmax) is 26 to 50%. The half-maximal degradation concentration (DC50) (read-out: VCaP DC50; VCaP cells; Table 36) is below 50 nM. As to `Cc1ncsc1-c1ccc([C@H](C)NC(=O)[C@@H]2C[C@@H](O)CN2C(=O)[C@@H](NC(=O)CN2CCN(C3CC4(C3)CN(c3ccc(C(=O)N[C@H]5C(C)(C)[C@H](Oc6ccc(C#N)c(Cl)c6)C5(C)C)cn3)C4)CC2)C(C)(C)C)cc1` [Example 809, N-((1r,3r)-3-(3-chloro-4-cyanophenoxy)-2,2,4,4-tetramethylcyclobutyl)-6-(6-(4-(2-(((S)-1-((2S, 4R)-4-hydroxy-2-(((S)-1-(4-(4-methylthiazol-5-yl)phenyl)ethyl)carbamoyl)pyrrolidin-1-yl)-3,3-dimethyl-1-oxobutan-2-yl)amino)-2-oxoethyl)piperazin-1-yl)-2-azaspiro[3.3]heptan-2-yl)n icotinamide], under setting [1], the DC50 is below 50 nM. Further, the maximal degradation (Dmax) (VCaP, read-out: VCaP Dmax (%)) is above 71%. In the same order, the values of `Cc1ncsc1-c1ccc([C@H](C)NC(=O)C2C[C@@H](O)CN2C(=O)C(c2cc(OCCN(C)[C@H](C(=O)NC(C(=O)N3CCN(c4ccc(C(=O)NC5C(C)(C)C(Oc6ccc(C#N)c(Cl)c6)C5(C)C)cc4)CC3)C(C)C)C(C)C)no2)C(C)C)cc1` (stereo partly drawn) [Example 810, (2S,4R)-1-(2-(3-(2-(((S)-1-(((S)-1-(4-(4-(((1r,3S)-3-(3-chloro-4-cyanophenoxy)-2,2,4,4-tetramethylcyclobutyl)carbamoyl)phenyl)piperazin-1-yl)-3-methyl-1-oxobutan-2-yl)amino)-3-methyl-1-oxobutan-2-yl) (methyl)amino)ethoxy)isoxazol-5-yl)-3-methylbutanoyl)-4-hydroxy-N-((S)-1-(4-(4-methylthiazol-5-yl)phenyl)ethyl) pyrrolidine-2-carboxamide] are below 50 nM and above 71%.
